Holding throughout (format): cell-based
For experiment [1], the system named is breast cancer cell lines. The experiment is described as follows: NCI 60 human tumor cell line screen, breast. The note with it: Homo sapiens, arithmetic mean of two to nine cancer cell lines, read-out: Inhibitory concentration GI50, breast. From the text:
(§1) Selected compounds were submitted for testing in the organ-specific panel of human tumor cell lines at the National Cancer Institute, Bethesda, Md. This screen utilized 60 human tumor cell lines, representing leukemia, melanoma, and cancers of the lung, colon, brain, ovary, kidney, prostate, and breast (Boyd, M. R., “Status of the NCl preclinical antitumor drug discovery screen”. In Principles and practice of oncology updates; De Vita, V. T., Jr. Hellman, S., Rosenberg, S. A., Eds.; Lippincott: Philadelphia, Pa., 1989; Vol. 3, pp 1-12).
(§2) The MG MID value is the average of the GI50 values for all the cell lines tested for drug concentrations in the range of 10^−4-10^−8 M (See website domain: dtp.nci.nih.gov/dtp).

In experiment [2] the test system is HL60. The experiment is described as follows: MTS cytotoxicity on MDR tumor cells, HL60. The note with it: Homo sapiens, HL-60, Vincristine (VCR) sensitive, 72 hr incubation.
The test system of experiment [3] is CNS cancer cell lines. The experiment is described as follows: NCI 60 human tumor cell line screen, CNS. The following applies: Homo sapiens, arithmetic mean of two to nine cancer cell lines, read-out: Inhibitory concentration GI50, CNS.
From the text: as §1, §2

Experiment [4] concerns human colorectal carcinoma HT29. The experiment is described as follows: Annexin-V FACS analysis of apoptosis. The following applies: FIGS. 3 and 4, treated versus control cells. Here is the method:
This activation was through ERK signaling and not through JNK signaling, resulting in PARP cleavage after 16 h. […] Activation of NFkB (p50) was also observed following treatment with these compounds.
(Flow cytometry measures light scatter and fluorescence of single cells or particles in a stream.)

The test system of experiment [5] is 60 human tumor cell lines. The experiment is described as follows: NCI 60 human tumor cell line screen, all cell lines.
From the text: as §1, §2

Experiment [6] deals with renal cancer cell lines. The experiment is described as follows: NCI 60 human tumor cell line screen, renal. The note with it: Homo sapiens, arithmetic mean of two to nine cancer cell lines, read-out: Inhibitory concentration GI50, renal.
From the text: as §1, §2

The test system of experiment [7] is prostate cancer cell lines. The experiment is described as follows: NCI 60 human tumor cell line screen, prostate. The note with it: Homo sapiens, arithmetic mean of two to nine cancer cell lines, read-out: Inhibitory concentration GI50, prostrate.
From the text: as §1, §2

Experiment [8] relates to colon cancer cell lines. The experiment is described as follows: NCI 60 human tumor cell line screen, colon. The following applies: Homo sapiens, arithmetic mean of two to nine cancer cell lines, read-out: Inhibitory concentration GI50, colon.
From the text: as §1, §2

Molecules are shown by their SMILES.

As for `C(=NNc1ncnc2[nH]cnc12)c1ccccn1` [I-18, 6-(2-(Pyridin-2-ylmethylene)hydrazinyl)-9H-purine], the GI50 in experiment [1] came to 1150 nM; in experiment [2], 1200 nM; in experiment [3] it was 633 nM; in experiment [6] it was 1480 nM; in experiment [7], 598 nM; in experiment [8], 1370 nM. Moreover, in experiment [4], the “Apoptosis (Annexin-V, FACS analysis)” value was “Apoptosis was also established”. The mean GI50 (MG-MID) in experiment [5] (Homo sapiens, average of the GI50 values for all the cell lines tested, drug concentrations 10^−4-10^−8 M, read-out: MG-MID (mean graph midpoint)) is 977 nM. For the same compound, in experiment [5] (NCI screen, by cancer type), the “cells found to be the most sensitive” value is “prostate, ovarian, CNS, and melanoma cancer cell lines”.

(Values after US9133230B2, “Hydrazone derivatives having potent antitumor activity toward multi-drug resistant tumor cells” (THE UNITED STATES OF AMERICA AS REPRESENTED BY THE …, priority 2011, dated 2015).)
